Measured values from article PMC3277864 (Molecular Pharmaceutics, 2011).
Where a SMILES comes first, the peptide text is derived from it. [ ]: non-standard residue; d: D form. The star is where a group is joined. Dolaproine = CO[C@@H]([C@@H]1CCCN1)[C@@H](C)C(=O)O; Dil = CC[C@H](C)[C@H](NC)[C@@H](CC(=O)O)OC; X1 = C[C@@H](N*)[C@@H](O)c1ccccc1; NMeV = CN[C@H](C(=O)O)C(C)C

How the values were obtained:
4T1 mammary carcinoma = details: murine breast cancer 4T1 model, 0.5 mg/kg; cited from earlier work
MDA-MB-435 cells [1] = assay: Cytotoxicity assay; type: cell-based, human; details: 48 hrs incubation
HEK-293L cells = assay: Cytotoxicity assay; type: cell-based, human; details: 48 hrs incubation
MDA-MB-435 cells [2] = details: 72 hrs incubation period; cited from earlier work
BALB/c mice = assay: Gross toxicity of mice; type: in vivo, mouse

Structure (SMILES): CC[C@H](C)[C@@H]([C@@H](CC(=O)N1CCC[C@H]1[C@H](OC)[C@@H](C)C(=O)N[C@H](C)[C@@H](O)c1ccccc1)OC)N(C)C(=O)[C@@H](NC(=O)[C@@H](NC)C(C)C)C(C)C [MMAE, 1, monomethylauristatin E] (H-[NMeV]V[Dil][Dolaproine]-X1)
- Animal death in 4T1 study (4T1 mammary carcinoma): all animals died
- In vitro cytotoxicity (comparison in words) (MDA-MB-435 cells [1]): more potent than the prodrugs 3 and 8
- In vitro cytotoxicity (comparison in words) (HEK-293L cells): more potent than the prodrugs 3 and 8
- Activities to MDA-MB-435 cells (MDA-MB-435 cells [2]): subnanomolar to low nanomolar activities
- Dose beyond which found considerably toxic to mice (BALB/c mice): 0.1 mg/kg
- Death (%) (BALB/c mice; i.p. 5x, dose 0.1 mg/kg): 20%
- Wt. loss (%) (BALB/c mice; i.p. 5x, dose 0.1 mg/kg, weighed for 3 weeks): 33.4%
- Death (%) (BALB/c mice; i.p. 5x, dose 0.5 mg/kg): 100%
- Death (%) (BALB/c mice; i.p. 5x, dose 1.5 mg/kg): 100%
